From US20250152591A1, “TREATMENT OF HEMATOLOGICAL MALIGNANCIES WITH MENIN INHIBITORS AND P-GLYCOPROTEIN INHIBITORS” (Kura Oncology, Inc., priority 2022, published 2025)
Read-outs that look alike come from different tables or passages of the source.

What was measured:
MV4;11-PGP cell line = assay: CellTiter-Glo cell viability assay, MV4;11-PGP; format: cell-based; set-up: unit of the concentration uncertain
Experimental: (§1) The influence of efflux pumps on the antitumor activity of the test compounds at steady state (more clinically relevant) were evaluated using P-gp-transfected AML cells (MV4;11 cells) in 6-day viability assays.
(§2) A P-gp-expressing KMT2A(MLL)-rearranged cell line model was developed by lentiviral transduction of the MV4;11 parental cell line and then selection for either Luciferase ORF (MV4;11-Control) or P-gp ORF (MV4;11-PGP).
(§3) […] Cell viability was measured by CellTiter-Glo® Luminescent Cell Viability Assay (CTG assay, Promega Corp.) and % Viability was quantified by normalizing to the luminescence values of DMSO-only treated cells. The dose-response curves and IC50's were calculated using GraphPad Prism 9.4.1.
(§4) The measured luminescence in the live cells of the MV4;11-Control and MV4;11-PGP cells that were treated with Compound I only (+DMSO), Compound I+posaconazole […], and valspodar (1 mM) are shown in FIGS. 5A and 5B.
(§5) In a second set of experiments, MV4;11-Control and MV4;11-PGP cell lines were treated as described above with five menin inhibitors, including Compound I, SNDX-5613, Compound A, Compound B, and Compound C, at concentrations ranging from 0 to 1000 nM. All tested compounds dropped in potency due to the P-gp expression as shown in FIGS. 6A-6J and in Tables 5 and 6 (indicated by increased IC50 values between “MV4;11-Control (Compound+DMSO)” and “MV4;11-PGP (Compound+DMSO)” entries).

[1] = system: OCI-AML3-Control cell line; assay: Cell viability assay, OCI-AML3-Control; format: cell-based; set-up: unit of the concentration uncertain; settings: 168 h, 7 days
Experimental: A third set of experiments was conducted in the cell line OCI-AML3, which carries the W288Cfs*12 mutation in NPM protein. The P-gp expressing OCI-AML3 cell line (OCI-AML3-PGP) and the Luciferase expressing OC-AML3 cell line (OCI-AML3-Control) were established by lentivirally transducing P-gp ORF or Luciferase ORF. Cells were treated with Compound I or SNDX-5613 for 7 days to assess the IC50 values.

MOLM13-PGP cell line = assay: Cell viability assay, MOLM13-PGP; format: cell-based; set-up: unit of the concentration uncertain; settings: 168 h, 7 days
Experimental: The effects described above were investigated in an AML cell line, MOLM-13, which carries a KA4T2A (MLL)-rearrangement mutation. The P-gp expressing MOLM-13 cell line (MOLM13-PGP) and the Luciferase expressing MOLM-13 cell line (MOLM13-Control) were established by lentivirally transducing P-gp ORF or Luciferase ORF. Cells were plated and treated with test compound for 7 days.

MV4;11-Control cell line = assay: CellTiter-Glo cell viability assay, MV4;11-Control; format: cell-based; set-up: unit of the concentration uncertain
Experimental: as §1, §2, §3, §4, §5

P-gp = P-gp (Homo sapiens, UniProt P08183); assay: in vitro; settings: MDCK-MDR1, pH 7.4
P-gp, sequence (P08183 whole entry): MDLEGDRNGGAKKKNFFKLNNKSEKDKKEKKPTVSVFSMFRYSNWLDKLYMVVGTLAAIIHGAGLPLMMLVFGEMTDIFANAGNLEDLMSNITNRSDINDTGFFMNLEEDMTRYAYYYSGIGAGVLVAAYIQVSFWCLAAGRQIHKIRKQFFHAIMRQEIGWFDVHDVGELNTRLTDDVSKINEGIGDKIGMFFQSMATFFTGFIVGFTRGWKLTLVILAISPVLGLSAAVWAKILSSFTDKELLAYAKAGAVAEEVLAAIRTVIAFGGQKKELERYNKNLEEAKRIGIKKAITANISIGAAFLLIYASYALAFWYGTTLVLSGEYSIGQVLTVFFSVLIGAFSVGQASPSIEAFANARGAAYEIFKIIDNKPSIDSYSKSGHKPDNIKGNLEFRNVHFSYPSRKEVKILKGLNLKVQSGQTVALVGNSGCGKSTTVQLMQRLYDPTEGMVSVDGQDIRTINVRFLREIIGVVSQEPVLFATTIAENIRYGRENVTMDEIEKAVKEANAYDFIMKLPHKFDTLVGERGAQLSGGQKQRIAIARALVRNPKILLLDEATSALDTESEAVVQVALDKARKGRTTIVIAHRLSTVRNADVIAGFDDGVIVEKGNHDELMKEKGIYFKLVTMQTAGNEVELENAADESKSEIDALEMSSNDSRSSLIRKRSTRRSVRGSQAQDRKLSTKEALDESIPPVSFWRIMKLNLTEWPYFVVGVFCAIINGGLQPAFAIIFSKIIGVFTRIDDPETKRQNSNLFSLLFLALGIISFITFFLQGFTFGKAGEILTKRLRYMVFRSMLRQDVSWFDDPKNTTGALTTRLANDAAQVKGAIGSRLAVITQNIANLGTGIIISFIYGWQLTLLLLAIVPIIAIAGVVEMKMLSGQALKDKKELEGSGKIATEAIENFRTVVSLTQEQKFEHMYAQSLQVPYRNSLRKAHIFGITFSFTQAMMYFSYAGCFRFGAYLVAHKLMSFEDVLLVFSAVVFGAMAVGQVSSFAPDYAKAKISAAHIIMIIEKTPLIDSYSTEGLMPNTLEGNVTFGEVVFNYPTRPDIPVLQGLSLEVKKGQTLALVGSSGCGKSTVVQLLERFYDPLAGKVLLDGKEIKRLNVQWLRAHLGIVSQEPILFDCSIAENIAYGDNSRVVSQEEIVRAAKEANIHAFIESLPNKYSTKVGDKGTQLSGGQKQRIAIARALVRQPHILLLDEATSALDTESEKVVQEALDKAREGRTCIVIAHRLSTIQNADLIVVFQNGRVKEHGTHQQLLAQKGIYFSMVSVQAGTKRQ
Experimental: MDCK epithelial cells stably transfected with the human MDR1 gene (the gene encoding for the efflux protein P-gp) were seeded on a Multiscreen™ plate (Millipore, MA, USA) and formed a confluent monolayer over 4 days prior to the experiment. To verify the MDR1-MDCK cell monolayers were properly formed, aliquots of the cell buffers were analyzed by fluorescence to determine the transport of the impermeable dye Lucifer Yellow. Any deviations from control values are reported.
MDR1-MDCK cells were incubated with these buffers for 2 h, and the receiver side buffer was removed for analysis by LC-MS/MS.
The rate of passage of the test compounds through this cell monolayer barrier from apical to basolateral (A→B) in this bi-directional transport assay was used to determine the apparent permeability coefficient (Papp). Receiver, donor, and dosing solution concentrations were quantified using a calibration curve prepared in transport buffer solution (pH 7.4). Papp is calculated as
where dQ/dt is rate of permeation, C0 is initial concentration of test agent, and A is the area of monolayer (0.11 cm^2). The basolateral to apical (B→A) to apical to basolateral (A→B) apparent permeability coefficient ratio
When RE>2 for a tested compound, the tested compound is a potential substrate for P-gp.
Rantinidine, talinolol, warfarin, and loperamide (±2 μM elacridar) were tested as reference compounds and each was tested at a concentration of 10 μM.

CNc1nc(NC2CCN(Cc3ccc4c(cc(C#N)n4C[C@H](C)N4CCN(S(C)(=O)=O)CC4)c3C)CC2)c2cc(CC(F)(F)F)sc2n1 [Compound I]
IC50 (MV4;11-PGP cell line; 120 h, MV4;11-PGP, 5 days, Table 4, read-out: IC50 (Compound I + DMSO)): 33 nM | IC50 (MV4;11-PGP cell line; 120 h, MV4;11-PGP, posaconazole (1.5 μM), 5 days, Table 4, read-out: IC50 (Compound I + Posaconazole)): 7.1 nM | IC50 (MV4;11-PGP cell line; 120 h, MV4;11-PGP, valspodar (1 μM), 5 days, Table 4, read-out: IC50 (Compound I + Valspodar)): 4.7 nM | IC50 (MV4;11-PGP cell line; 144 h, second set of experiments, 0 to 1000 nM, Table 5, read-out: IC50 MV4;11-PGP (Compound + DMSO)): 19.1 nM | IC50 (MV4;11-PGP cell line; 144 h, second set of experiments, 0 to 1000 nM, Table 6, read-out: IC50 MV4;11-PGP (Compound + DMSO)): 19.9 nM | IC50 (MV4;11-PGP cell line; second set of experiments, posaconazole (1.5 (unit uncertain)), Table 5, read-out: IC50 MV4;11-PGP (Compound + posaconazole)): 5.79 nM | IC50 (MV4;11-PGP cell line; second set of experiments, valspodar (1 (unit uncertain)), Table 6, read-out: IC50 MV4;11-PGP (Compound + valspodar)): 5.64 nM | IC50 ([1]; Table 9, read-out: IC50 OCI-AML3-Control (Compound + DMSO)): 16.4 nM | IC50 ([1]; Table 10, read-out: IC50 OCI-AML3-Control (Compound + DMSO)): 15.3 nM | IC50 ([1]; posaconazole (0.75 (unit uncertain)), Table 9, read-out: IC50 OCI-AML3-Control (Compound + posaconazole)): 17.7 nM | IC50 ([1]; valspodar (1 (unit uncertain)), Table 10, read-out: IC50 OCI-AML3-Control (Compound + valspodar)): 19.2 nM | IC50 (MOLM13-PGP cell line; Table 7, read-out: IC50 MOLM13-PGP (Compound + DMSO)): 65.7 nM | IC50 (MOLM13-PGP cell line; Table 8, read-out: IC50 MOLM13-PGP (Compound + DMSO)): 63.2 nM | IC50 (MOLM13-PGP cell line; posaconazole (1.5 (unit uncertain)), Table 7, read-out: IC50 MOLM13-PGP (Compound + posaconazole)): 19.2 nM | IC50 (MOLM13-PGP cell line; valspodar (1 (unit uncertain)), Table 8, read-out: IC50 MOLM13-PGP (Compound + valspodar)): 23 nM | IC50 (MV4;11-Control cell line; 120 h, MV4;11-Control, 5 days, Table 4, read-out: IC50 (Compound I + DMSO)): 7.2 nM | IC50 (MV4;11-Control cell line; 120 h, MV4;11-Control, posaconazole (1.5 μM), 5 days, Table 4, read-out: IC50 (Compound I + Posaconazole)): 3.8 nM | IC50 (MV4;11-Control cell line; 120 h, MV4;11-Control, valspodar (1 μM), 5 days, Table 4, read-out: IC50 (Compound I + Valspodar)): 6.1 nM | IC50 (MV4;11-Control cell line; 144 h, Compound I only, 0 to 1000 nM, 6 days, Table 3, read-out: IC50 MV4;11-Control): 7.6 nM | IC50 (MV4;11-Control cell line; 144 h, second set of experiments, 0 to 1000 nM, Table 5, read-out: IC50 MV4;11-Control (Compound + DMSO)): 6.05 nM | IC50 (MV4;11-Control cell line; 144 h, second set of experiments, 0 to 1000 nM, Table 6, read-out: IC50 MV4;11-Control (Compound + DMSO)): 6.14 nM | IC50 (MV4;11-Control cell line; second set of experiments, posaconazole (1.5 (unit uncertain)), Table 5, read-out: IC50 MV4;11-Control (Compound + posaconazole)): 3.76 nM | IC50 (MV4;11-Control cell line; second set of experiments, valspodar (1 (unit uncertain)), Table 6, read-out: IC50 MV4;11-Control (Compound + valspodar)): 4.84 nM | Papp A→B at 2 h (P-gp): 0.308 ×10⁻⁶ cm/s | Papp B→A at 2 h (P-gp): 1.84 ×10⁻⁶ cm/s
